As a reminder, the IC50 is the midpoint of a concentration-inhibition curve. A lower IC50 goes with greater potency.

Common to all, as to assay type: cell-based
Data set [1] concerns ERα positive and ERα negative cells. Here is the method:
ALAMAR BLUE RAPTINAL ASSAYS: Cells were plated at 4,000-10,000 cells/well (96 well plate), usually in 50 μl of medium. After about 18 hours, an additional 50 μl of medium containing 2× the desired final concentration of the test compound (C-105) was added to each well. After 24 hours Alamar Blue reagent was added and fluorescence in the wells was read (BMG PheraStar or Molecular Devices Spectra Max M3 Microplate Reader). % relative death was determined by setting the reading for raptinal-treated cells to 100% dead cells and the reading for vehicle-treated cells to 0% dead cells.
ERα positive MCF-7 breast cancer, Caov-3 ovarian cancer and ECC-1 uterine cancer cells and ERα negative MDA-MB-231 human breast cancer cells and HeLa, human cervical carcinoma cells and MCF-10A human mammary epithelial cells were plated at 10,000 cells/well (96 well plate) in 50 μl of medium. After about 18 hours, an additional 50 μl of medium containing 2× the desired final concentration of the test compound (C-105) was added to each well (final vol. 100 μl/well). After 24 hours Alamar Blue reagent was added and fluorescence in the wells was read after 1 hour (BMG PheraStar Microplate Reader). % relative death was determined by setting the reading for 10,000 nM raptinal-treated cells to 100% dead cells and the reading for vehicle-treated cells to 0% dead cells. (Data is the average ±SEM of 3 independent experiments with 5 biological replicates for each sample within each independent experiment.)
FIG. 3 compares the ability of (±)-105 to kill ERα positive and ERα negative cells. The dose response tests the ability of (±)-105 to rapidly kill ERα positive and ERα negative cells. […] After 24 hours Alamar Blue reagent was added and fluorescence in the wells was read. % relative death was determined by setting the reading for […] raptinal-treated cells to 100% dead cells and the reading for vehicle-treated cells to 0% dead cells. […]

Data set [2] deals with panel of cancer cell lines. Nature of the data set: Alamar blue 24-hour IC50 against a panel of cancer cell lines. Conditions: Homo sapiens, average. Here is the method:
FIG. 36. Discovery of SERK-F6 (also known as, C(−)-105, (−)-105, (R)-105, (−)-1, or (R)-1), a compound that kills ERα-positive cancer cells, a, Chemical structures of BHPI and racemic compound 1 (i.e. (±)-1), and their cytotoxic activity on T47D breast cancer cells after 24-hour incubations with concentrations as indicated in nM. Cells were stained with annexin V-FITC and PI dyes prior to analysis via flow cytometry. […] Cells were incubated with SERK-F6 or positive control, Raptinal, for 24 hours and then stained with annexin V-FITC and PI dyes and analyzed via flow cytometry. […] Cell viability was measured by Alamar blue fluorescence and set relative to a vehicle control and a quantitative dead control treated with Raptinal. […] Cell number was determined by MTS.
FIG. 40. […] Concentration was determined via LC/MS/MS analysis. […] Concentrations were determined via LC/MS/MS analysis. […]
Cell lines: ERα positive breast cancer: T47D, MCF-7 TYS (T47D Y537S) TDG (T47D D538G), BT-474; ERα negative MDA-MB-231 breast cancer cells; 6,000 cells/well were plated (96 well plate) in 100 μl of medium. […] After 2-4 hours fluorescence in the wells was read (λex: 555 nm, λem: 585 nm, Spectra Max M3 Plate reader). % relative death was determined by setting the reading for 10,000 nM raptinal-treated cells to 100% dead cells and the reading for vehicle-treated cells to 0% dead cells. […]

The next data set has as its system MCF-7. Here is the method:
(§1) FIG. 36. Discovery of SERK-F6 (also known as, C(−)-105, (−)-105, (R)-105, (−)-1, or (R)-1), a compound that kills ERα-positive cancer cells, a, Chemical structures of BHPI and racemic compound 1 (i.e. (±)-1), and their cytotoxic activity on T47D breast cancer cells after 24-hour incubations with concentrations as indicated in nM. Cells were stained with annexin V-FITC and PI dyes prior to analysis via flow cytometry. […] Cells were incubated with SERK-F6 or positive control, Raptinal, for 24 hours and then stained with annexin V-FITC and PI dyes and analyzed via flow cytometry. Error bars represent S.E.M of 3 independent replicates. c, IC50 values of SERK-F6 after 24-hour incubation against a panel of cancer cell lines grouped by their reported ERα status. Cell viability was measured by Alamar blue fluorescence and set relative to a vehicle control and a quantitative dead control treated with Raptinal. Error bars represent S.E.M of 3 independent experiments. d, Crystal violet staining of T47D cells after 24-hour incubations with compounds and concentrations as indicated. Image is representative of 2 independent experiments. e,f, Long-term cell culture experiment with T47D, TDG, and TYS cells. Cells were incubated for 2 weeks with compounds (1 μM), followed by compound washout, and cells were cultured for 2 months. Cell number was determined by MTS. […]

For the next data set, the system named is MDA-MB-231. Here is the method:
as §1

In the case of `O=C1Nc2c(C(F)(F)F)cccc2C1(c1ccc(O)cc1)c1ccc(OC(F)(F)F)cc1` (racemic) [(±)-105, 3-(4-hydroxyphenyl)-3-(4-(trifluoromethoxy)phenyl)-7-(trifluoromethyl)indolin-2-one], the “selectivity for ERα positive cancer cell lines” value in data set [1] (0-10,000 nM, 24 hours) was “selective for ERα positive cancer cell lines”. The “effect in ERα negative cell lines” value in data set [1] (concentrations more than 10 times higher than those that kill ERα positive cells) is “no effect”.
Consider `O=C1Nc2c(C(F)(F)F)cccc2C1(c1ccc(O)cc1)c1ccc(OC(F)(F)F)cc1` (single isomer, unassigned; (-)) [(−)-105, 3-(4-hydroxyphenyl)-3-(4-(trifluoromethoxy)phenyl)-7-(trifluoromethyl)indolin-2-one], for which, in data set [2], the midpoint of inhibition, the IC50, lay at 42 nM. Further, the cytotoxicity entry in the data set with MCF-7 was “cytotoxic”; in the data set on MDA-MB-231, “minimal effects”.

For the origin of these results see patent US11046647B2, “Activators of the unfolded protein response” (The Board of Trustees of the University of Illinois, priority 2018, dated 2021).
